The results in this text go back to patent publication US7345096B2, “Use of norepinephrine reuptake modulators for preventing and treating vasomotor symptoms” (Wyeth, priority 2002, dated 2008).

Assay [1] has as its system naloxone-induced flush (tail skin temperature). The experiment in a line: Morphine-dependent rat model of hot flush (MD model). The following applies: for effect on naloxone-induced flush at maximal flush: 1 hour prior to naloxone, 15 minutes post-naloxone; for ED50: Rattus norvegicus, read-out: ED50 value, abatement of naloxone-induced flush.
Protocol: (§1) Dosinq: All doses were prepared based on mg/kg.
(§2) Animals: Ovariectomized Sprague-Dawley rats (180-220 g) were obtained from a commercial vendor (Taconic, Germantown, N.Y.) and individually housed under 12 hours light/dark cycle in a room maintained at 25° C. Animals were provided with standard rat chow and water ad libitum.
Morphine-dependent model: Ovariectomized rats were injected once daily for 8-9 days with vehicle to minimize stress responses and then administered compound(s) on test day. On day 4 of dosing, morphine dependence was induced by sc implantation of two slow-release morphine pellets (75 mg/pellet) in the dorsal scapular region. […] Four to six days after implantation, morphine withdrawal was induced with an opioid antagonist (naloxone) that causes a transient increase in TST. […] Rats were mildly sedated with ketamine and a thermistor connected to a MacLab data acquisition system was taped to the base of the tail. Tail skin temperature was then monitored continuously for 35 minutes to establish a baseline temperature. Naloxone was subsequently administered and TST was measured for an additional 35 to 60 minutes (total recording time 70 to 95 minutes).
Statistical analysis: To analyze changes in TST induced by naloxone in morphine-dependent rats, all data were analyzed using a two factor repeated measure ANOVA for “treatment” and “time.” The model was fit to test whether there were significant differences in the responses between treatment groups. Naloxone administration is designated as time zero and data is then analyzed at 5 minute intervals. The first three readings were averaged and used as baseline TST scores. All data were analyzed as ΔTST (TST for each time point—baseline). Multiple comparisons (LSD p-values) among the treatment groups at each time point were used for the analysis. Efficacy of hot flush abatement was determined by evaluating statistical differences at the peak response time of 15 minutes post-naloxone, when the maximal change in TST is observed. A customized SAS-excel (SAS Institute, Cary, N.C.) application was used applying a four parameter logistic model to determine ED50 values. A logistic dose transformation was performed on ΔTST. Maximum flush (ΔTST at 15 minutes post-naloxone) was used in the analysis and the minimum was locked at zero.
For assay [2], the system named is tail skin temperature during active (dark) phase. The assay is described as follows: OVX-induced thermoregulatory dysfunction telemetry model.
Protocol: as §1, §2
A temperature and physical activity transmitter (PhysioTel TA10TA-F40, Data Sciences International) was implanted subcutaneously in the dorsal scapular region and the tip of the temperature probe was tunneled subcutaneously 2.5 cm beyond the base of the tail. After a 7-day recovery period, TST readings were continuously recorded for the remainder of the study. Tail skin temperature readings were collected from each animal every 5 minutes with values obtained over a 10 second sampling period. The day before test day, an average baseline TST value was calculated for each animal by averaging temperature readings recorded during the 12 hours active (dark) phase. In these studies, animals were dosed approximately 1 hour prior to the onset of dark cycle.
Evaluation of a compound's ability to restore normal lowering of TST in the telemetry model was analyzed using hourly TST values calculated for each animal by averaging the 12 temperature readings obtained every 5 minutes over that recording time. To analyze ΔTST in the telemetry model, a two factors repeated measure ANOVA was performed. The model used for analysis was ΔTST=GRP (group)+HR (hours)+GRP*HR+BASELINE. Thus, the reported least squares means are the expected mean values as if both groups had the same baseline value. Post-hoc tests of hourly GRP*HR samples are t-tests of the difference between groups for each hour. To be conservative, a result was not considered significant unless the p-value was <0.025. All analyses were performed using SAS PROC MIXED (SAS, Carey, N.C.).

By ED50 is commonly meant the midpoint of the dose-response relation.

Consider `CCC1(c2cnc[nH]2)Cc2ccccc2C1` [atipamezole], for which the “changes in TST after naloxone vs vehicle” value in assay [1] (atipamezole 0.3 mg/kg sc alone, 55 minutes prior to naloxone) was “not significantly different from vehicle treated rats”. Consider `CN(C)CC(c1cccc(Cl)c1)C1(O)CCCCC1` (centres unmarked) [WY-781], for which the “effect on naloxone-induced flush at maximal flush” value (shortened to “effect … at maximal flush”) in assay [1] (30 mg/kg intraperitoneally) was “abated the naloxone-induced flush”. Take `CNCCC(Oc1ccc(C(F)(F)F)cc1)c1ccccc1` (centres unmarked) [fluoxetine]: the “effect on naloxone-induced flush” value in assay [1] (fluoxetine 10 mg/kg sc alone) is reported as “did not abate the naloxone-induced flush”.

Take `CN1CCN(CC(c2cccc(Cl)c2)C2(O)CCCCC2)CC1` (racemic) [1-[1-(3-chlorophenyl)-2-(4-methyl-1-piperazinyl)ethyl]cyclohexanol]: the “changes in TST over time after naloxone” value in assay [1] (dose response, sc) was “dose-dependently abate the naloxone-induced flush”. Take `CCOc1ccccc1OC(c1ccccc1)C1CNCCO1` (centres unmarked) [reboxetine]: in assay [1] (dose response, sc), the “changes in TST over time after naloxone” value is recorded as “dose-dependently abate the naloxone-induced flush” and the “effect … at maximal flush” value is “dose-dependently abates the naloxone-induced flush”. Turning to `CN(C)CC(c1cccc(C(F)(F)F)c1)C1(O)CCCCC1` (centres unmarked) [WY-867], the “effect … at maximal flush” value in assay [1] (30 mg/kg intraperitoneally) is on record as “abated the naloxone-induced flush”. In the case of `COc1ccc(C(CN(C)C)C2(O)CCCCC2)cc1` (centres unmarked) [venlafaxine], the “effect on elevated naloxone-dependent hot flush induced by atipamezole” value in assay [1] (rat, in vivo) was “able to alleviate”. In assay [2] (15 mg/kg sc), the “changes in TST over time” value is “significantly and transiently decreased TST during the active phase”. Turning to `CNCCCN1c2ccccc2CCc2ccccc21` [desipramine], in assay [1] (1 mg/kg sc, 40 minutes prior to naloxone, alone), the “abatement of naloxone-induced flush” value is reported as “approximately 50%”. Also, the “abatement of hot flush” value in assay [1] (3 mg/kg desipramine co-administered with 10 mg/kg dose of SRI) is given as 100%. Further, in assay [1] (sc), the 50% effective dose (ED50) came to 1 mg/kg. Besides, the “effect … at maximal flush” value in assay [1] (dose response, sc) was “dose-dependently abates the naloxone-induced flush”. Also, the “reduction of TST compared to vehicle treated rats in naloxone-induced hot flush” value in assay [1] (low dose) came to 50%. Also, the “changes in TST over time” value in assay [2] (10 mg/kg sc) is listed as “significantly decreases TST over the entire length of the active phase”.

Regarding `CN(C)CC(c1ccc(O)cc1)C1(O)CCCCC1` (centres unmarked) [DVS-233, O-desmethyl-venlafaxine], in assay [1] (sc), the ED50 was determined as 30 mg/kg. In addition, the “changes in TST over time” value in assay [2] (60 mg/kg sc) was “significantly and transiently decreases TST during the active phase”.
